Experimental data taken from PubChem BioAssay AID2060351 (Molecular Pharmacology Branch, DTP, NCI, 2025).
Several values for one entry are separate records, joined by “and”; a condition that tells them apart may be missing. Identical values can stand only once.

System: 521955-158-R7-J2-PDC spheroids, viability % test/control
Assay: Anticancer human tumor 521955-158-R7-J2-PDC patient-derived pancreatic carcinoma cell line growth inhibition [TAK]
Settings: spheroids with HUVEC and MSC; for viability, T/C: stronger effect = lower value
Outline: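 Drug combinations, each paired with TAK-243 or ipatasertib, were tested on multi-cell spheroids of 60% malignant cells, 25% HUVEC and 15% hMSC. Top concentrations were at or near the clinical Cmax (10 microM if undetermined), decreasing by half-log; viability is given as % test/control.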

[1] = curve of first compound, second compound 0.3 µM
[2] = curve of first compound, second compound 0.949 µM
[3] = curve of first compound, second compound 3 µM
[4] = curve of first compound, second compound 9.49 µM
[5] = curve of first compound, second compound 30 µM
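Also: spheroids exposed to compound for 7 days before readout.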
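For viability, T/C in this document: 100% = DMSO vehicle control wells.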

COc1c(OCCCN2CCOCC2)ccc2c3n(c(=NC(=O)c4cnc(N)nc4)nc12)CCN3
viability, T/C (compound 0.00316 µM): 87.5% and 86.9%
viability, T/C (compound 0.01 µM): 67.9% and 63.5%
viability, T/C (compound 0.0316 µM): 41.4% and 50.6%
viability, T/C (compound 0.1 µM): 26.5% and 25.3%
viability, T/C (compound 0.316 µM): 14.9% and 13.6%
viability, T/C (compound 1 µM): 10% and 10.6%
IC50 (curve of compound): 22.6 nM and 25.2 nM

CC(C)n1nc(-c2ccc3oc(N)nc3c2)c2c(N)ncnc21 + CC(C)NCC(C(=O)N1CCN(c2ncnc3c2C(C)CC3O)CC1)c1ccc(Cl)cc1
IC50 [1]: > 100 nM
IC50 [2]: > 100 nM
IC50 [3]: > 100 nM
IC50 [4]: > 100 nM
IC50 [5]: > 100 nM
viability, T/C (second compound 0.3 µM, first compound 0.000316 µM): 112%
viability, T/C (second compound 0.3 µM, first compound 0.001 µM): 74.7%
viability, T/C (second compound 0.3 µM, first compound 0.00316 µM): 78.8%
viability, T/C (second compound 0.3 µM, first compound 0.01 µM): 134%
viability, T/C (second compound 0.3 µM, first compound 0.0316 µM): 98.1%
viability, T/C (second compound 0.3 µM, first compound 0.1 µM): 69%
viability, T/C (second compound 0.949 µM, first compound 0.000316 µM): 118%
viability, T/C (second compound 0.949 µM, first compound 0.001 µM): 84.9%
viability, T/C (second compound 0.949 µM, first compound 0.00316 µM): 100%
viability, T/C (second compound 0.949 µM, first compound 0.01 µM): 75.3%
viability, T/C (second compound 0.949 µM, first compound 0.0316 µM): 99%
viability, T/C (second compound 0.949 µM, first compound 0.1 µM): 100%
viability, T/C (second compound 3 µM, first compound 0.000316 µM): 91.3%
viability, T/C (second compound 3 µM, first compound 0.001 µM): 105%
viability, T/C (second compound 3 µM, first compound 0.00316 µM): 86.8%
viability, T/C (second compound 3 µM, first compound 0.01 µM): 94.3%
viability, T/C (second compound 3 µM, first compound 0.0316 µM): 132%
viability, T/C (second compound 3 µM, first compound 0.1 µM): 120%
viability, T/C (second compound 9.49 µM, first compound 0.000316 µM): 89.9%
viability, T/C (second compound 9.49 µM, first compound 0.001 µM): 98.3%
viability, T/C (second compound 9.49 µM, first compound 0.00316 µM): 83.9%
viability, T/C (second compound 9.49 µM, first compound 0.01 µM): 113%
viability, T/C (second compound 9.49 µM, first compound 0.0316 µM): 120%
viability, T/C (second compound 9.49 µM, first compound 0.1 µM): 106%
viability, T/C (second compound 30 µM, first compound 0.000316 µM): 102%
viability, T/C (second compound 30 µM, first compound 0.001 µM): 115%
viability, T/C (second compound 30 µM, first compound 0.00316 µM): 103%
viability, T/C (second compound 30 µM, first compound 0.01 µM): 127%
viability, T/C (second compound 30 µM, first compound 0.0316 µM): 117%
viability, T/C (second compound 30 µM, first compound 0.1 µM): 80%

Cn1cnc2c(F)c(Nc3ccc(Br)cc3Cl)c(C(=O)NOCCO)cc21 + CC(C)NCC(C(=O)N1CCN(c2ncnc3c2C(C)CC3O)CC1)c1ccc(Cl)cc1
IC50 [1]: 108 nM
IC50 [2]: 65 nM
IC50 [3]: 33.9 nM
IC50 [4]: 19.9 nM
IC50 [5]: 17.4 nM
viability, T/C (second compound 0.3 µM, first compound 0.00949 µM): 71.3%
viability, T/C (second compound 0.3 µM, first compound 0.03 µM): 61.7%
viability, T/C (second compound 0.3 µM, first compound 0.0949 µM): 45.6%
viability, T/C (second compound 0.3 µM, first compound 0.3 µM): 45.5%
viability, T/C (second compound 0.3 µM, first compound 0.949 µM): 28.2%
viability, T/C (second compound 0.3 µM, first compound 3 µM): 13.9%
viability, T/C (second compound 0.949 µM, first compound 0.00949 µM): 76.7%
viability, T/C (second compound 0.949 µM, first compound 0.03 µM): 55.5%
viability, T/C (second compound 0.949 µM, first compound 0.0949 µM): 46.3%
viability, T/C (second compound 0.949 µM, first compound 0.3 µM): 31.3%
viability, T/C (second compound 0.949 µM, first compound 0.949 µM): 25.5%
viability, T/C (second compound 0.949 µM, first compound 3 µM): 9.79%
viability, T/C (second compound 3 µM, first compound 0.00949 µM): 63.9%
viability, T/C (second compound 3 µM, first compound 0.03 µM): 54.7%
viability, T/C (second compound 3 µM, first compound 0.0949 µM): 32.4%
viability, T/C (second compound 3 µM, first compound 0.3 µM): 31.5%
viability, T/C (second compound 3 µM, first compound 0.949 µM): 23.7%
viability, T/C (second compound 3 µM, first compound 3 µM): 9.02%
viability, T/C (second compound 9.49 µM, first compound 0.00949 µM): 61.8%
viability, T/C (second compound 9.49 µM, first compound 0.03 µM): 40.4%
viability, T/C (second compound 9.49 µM, first compound 0.0949 µM): 34%
viability, T/C (second compound 9.49 µM, first compound 0.3 µM): 27.5%
viability, T/C (second compound 9.49 µM, first compound 0.949 µM): 25.7%
viability, T/C (second compound 9.49 µM, first compound 3 µM): 10.8%
viability, T/C (second compound 30 µM, first compound 0.00949 µM): 56.6%
viability, T/C (second compound 30 µM, first compound 0.03 µM): 43.3%
viability, T/C (second compound 30 µM, first compound 0.0949 µM): 34.6%
viability, T/C (second compound 30 µM, first compound 0.3 µM): 30%
viability, T/C (second compound 30 µM, first compound 0.949 µM): 17.6%
viability, T/C (second compound 30 µM, first compound 3 µM): 7.96%
